Source: paper PMC8548355 (Medicinal Chemistry Research, 2021)
Converted amounts (≈) assume the structure as drawn. One block for each molecule: values may come before it.

What was measured:
K. pneumoniae BAA 1705 = test: MIC by broth microdilution against K. pneumoniae BAA 1705; type: cell-based; conditions: Klebsiella pneumoniae, BAA1705, read-out: MIC against K. pneumoniae BAA 1705
S. aureus ATCC 29213 [1] = test: MIC by broth microdilution against S. aureus ATCC 29213; type: cell-based, Staphylococcus aureus; conditions: for MIC: Staphylococcus aureus, ATCC29213, read-out: MIC against S. aureus ATCC 29213, broth microdilution, 37 °C, 16–18 h
E. coli ATCC 25922 = test: MIC by broth microdilution against E. coli ATCC 25922; type: cell-based; conditions: Escherichia coli, ATCC25922, read-out: MIC against E. coli ATCC 25922
A. baumannii BAA 1605 = test: MIC by broth microdilution against A. baumannii BAA 1605; type: cell-based; conditions: Acinetobacter baumannii, BAA1605, read-out: MIC against A. baumannii BAA 1605
MRSA NRS 10100 = test: MIC against clinical MRSA isolate NRS 10100; type: cell-based; conditions: Staphylococcus aureus, MRSA|NRS10100, read-out: MIC against MRSA NRS 10100
MRSA NRS 10129 = test: MIC against clinical MRSA isolate NRS 10129; type: cell-based; conditions: Staphylococcus aureus, MRSA|NRS10129, read-out: MIC against MRSA NRS 10129
MRSA NRS 10191 = test: MIC against clinical MRSA isolate NRS 10191; type: cell-based; conditions: Staphylococcus aureus, MRSA|NRS10191, read-out: MIC against MRSA NRS 10191
MRSA NRS 10186 = test: MIC against clinical MRSA isolate NRS 10186; type: cell-based; conditions: Staphylococcus aureus, MRSA|NRS10186, read-out: MIC against MRSA NRS 10186
[2] = system: clinical MDR S. aureus isolates (MRSA and VRSA); test: MIC against clinical MDR S. aureus isolates, whole panel; type: cell-based, Staphylococcus aureus; conditions: nine MRSA and three VRSA strains
VRSA VRS 4 = test: MIC against clinical VRSA isolate VRS 4; type: cell-based; conditions: Staphylococcus aureus, read-out: MIC against VRSA VRS 4
MRSA NRS 10192 = test: MIC against clinical MRSA isolate NRS 10192; type: cell-based; conditions: Staphylococcus aureus, MRSA|NRS10192, read-out: MIC against MRSA NRS 10192
MRSA NRS 10198 = test: MIC against clinical MRSA isolate NRS 10198; type: cell-based; conditions: Staphylococcus aureus, MRSA|NRS10198, read-out: MIC against MRSA NRS 10198
MRSA NRS 10119 = test: MIC against clinical MRSA isolate NRS 10119; type: cell-based; conditions: Staphylococcus aureus, MRSA|NRS10119, read-out: MIC against MRSA NRS 10119
MRSA NRS 10193 = test: MIC against clinical MRSA isolate NRS 10193; type: cell-based; conditions: Staphylococcus aureus, MRSA|NRS10193, read-out: MIC against MRSA NRS 10193
MRSA NRS 10194 = test: MIC against clinical MRSA isolate NRS 10194; type: cell-based; conditions: Staphylococcus aureus, MRSA|NRS10194, read-out: MIC against MRSA NRS 10194
VRSA VRS 12 = test: MIC against clinical VRSA isolate VRS 12; type: cell-based; conditions: Staphylococcus aureus, read-out: MIC against VRSA VRS 12
VRSA VRS 1 = test: MIC against clinical VRSA isolate VRS 1; type: cell-based; conditions: Staphylococcus aureus, read-out: MIC against VRSA VRS 1
S. aureus ATCC 29213 [3] = test: Drug interaction of 22 with FDA-approved drugs, checkerboard method; type: cell-based, Staphylococcus aureus; conditions: for MIC of drug in the presence of “22” “B”: S. aureus ATCC 29213, checkerboard, in combination with 22; for MIC: Staphylococcus aureus, ATCC29213, 24 h, read-out: MIC (drug alone); for Inference (drug interaction): combination of 22 with the drug, S. aureus ATCC 29213

Structure (SMILES): O=C(Nc1ccc(F)cc1[N+](=O)[O-])c1ccccc1O [Compound 15, N-(4ʹ-fluoro-2ʹ-nitrophenyl)-2-hydroxybenzamide]
MIC (K. pneumoniae BAA 1705): > 64 µg/mL
MIC (S. aureus ATCC 29213 [1]): 32 µg/mL (≈ 116 µM)
MIC (E. coli ATCC 25922): > 64 µg/mL
MIC (A. baumannii BAA 1605): > 64 µg/mL

Structure (SMILES): O=C(Nc1ccc(F)cc1[N+](=O)[O-])c1cc(Cl)ccc1O [Compound 16, 5-Chloro-N-(4ʹ-fluoro-2ʹ-nitrophenyl)-2-hydroxybenzamide]
MIC (K. pneumoniae BAA 1705): > 64 µg/mL
MIC (S. aureus ATCC 29213 [1]): 3.88 µg/mL (≈ 12.5 µM)
MIC against S. aureus ATCC 29213 (S. aureus ATCC 29213 [1]; broth microdilution, 37 °C, 16–18 h): 4 µg/mL (≈ 12.9 µM)
MIC (E. coli ATCC 25922): > 64 µg/mL
MIC (A. baumannii BAA 1605): > 64 µg/mL

Structure (SMILES): O=C(Nc1ccc([N+](=O)[O-])cc1F)c1ccccc1O [Compound 17, N-(2ʹ-fluoro-4ʹ-nitrophenyl)-2-hydroxybenzamide]
MIC (S. aureus ATCC 29213 [1]): 2 µg/mL (≈ 7.24 µM)

Structure (SMILES): O=C(Nc1ccc(Cl)c(C(F)(F)F)c1)c1cc(Cl)ccc1O [Compound 20, 5-Chloro-N-(4ʹ-chloro-3ʹ-(trifluoromethyl)phenyl)-2-hydroxybenzamide]
MIC (MRSA NRS 10100): 0.5 µg/mL (≈ 1.43 µM)
MIC (MRSA NRS 10129): 0.5 µg/mL (≈ 1.43 µM)
MIC (K. pneumoniae BAA 1705): > 64 µg/mL
MIC (MRSA NRS 10191): 0.5 µg/mL (≈ 1.43 µM)
MIC (MRSA NRS 10186): 0.5 µg/mL (≈ 1.43 µM)
MIC against MRSA and VRSA isolates (range over the panel) [2]: 0.25 to 0.5 µg/mL
MIC (VRSA VRS 4): 0.25 µg/mL (≈ 0.714 µM)
MIC (MRSA NRS 10192): 0.5 µg/mL (≈ 1.43 µM)
MIC (MRSA NRS 10198): 0.5 µg/mL (≈ 1.43 µM)
MIC (MRSA NRS 10119): 0.5 µg/mL (≈ 1.43 µM)
MIC (MRSA NRS 10193): 0.5 µg/mL (≈ 1.43 µM)
MIC (MRSA NRS 10194): 0.5 µg/mL (≈ 1.43 µM)
MIC (VRSA VRS 12): 0.5 µg/mL (≈ 1.43 µM)
MIC (VRSA VRS 1): 0.5 µg/mL (≈ 1.43 µM)
MIC (S. aureus ATCC 29213 [1]): 0.25 µg/mL (≈ 0.714 µM)
MIC (E. coli ATCC 25922): > 64 µg/mL
MIC (A. baumannii BAA 1605): > 64 µg/mL

Structure (SMILES): O=C(Nc1ccc(Cl)cc1)c1cc(Cl)ccc1O [Compound 24, 5-Chloro-N-(4ʹ-chlorophenyl)-2-hydroxybenzamide]
MIC (MRSA NRS 10100): 0.5 µg/mL (≈ 1.77 µM)
MIC (MRSA NRS 10129): 0.5 µg/mL (≈ 1.77 µM)
MIC (K. pneumoniae BAA 1705): > 64 µg/mL
MIC (MRSA NRS 10191): 0.5 µg/mL (≈ 1.77 µM)
MIC (MRSA NRS 10186): 0.5 µg/mL (≈ 1.77 µM)
MIC against MRSA and VRSA isolates (range over the panel) [2]: 0.25 to 0.5 µg/mL
MIC (VRSA VRS 4): 0.5 µg/mL (≈ 1.77 µM)
MIC (MRSA NRS 10192): 0.5 µg/mL (≈ 1.77 µM)
MIC (MRSA NRS 10198): 0.5 µg/mL (≈ 1.77 µM)
MIC (MRSA NRS 10119): 0.25 µg/mL (≈ 0.886 µM)
MIC (MRSA NRS 10193): 0.5 µg/mL (≈ 1.77 µM)
MIC (MRSA NRS 10194): 0.5 µg/mL (≈ 1.77 µM)
MIC (VRSA VRS 12): 0.5 µg/mL (≈ 1.77 µM)
MIC (VRSA VRS 1): 0.5 µg/mL (≈ 1.77 µM)
MIC (S. aureus ATCC 29213 [1]): 0.5 µg/mL (≈ 1.77 µM)
MIC (E. coli ATCC 25922): > 64 µg/mL
MIC (A. baumannii BAA 1605): > 64 µg/mL

Structure (SMILES): CNC(C)C1CCC(N)C(OC2C(N)CC(N)C(OC3OCC(C)(O)C(NC)C3O)C2O)O1 (centres unmarked) [Gentamicin]
MIC of drug in the presence of “22” “B” (S. aureus ATCC 29213 [3]): 0.25 µg/mL
MIC (S. aureus ATCC 29213 [3]): 0.5 µg/mL
Inference (drug interaction) (S. aureus ATCC 29213 [3]): No interaction

Structure (SMILES): C[C@@H](O)[C@H]1C(=O)N2C(C(=O)O)=C(S[C@@H]3CN[C@H](C(=O)N(C)C)C3)[C@H](C)[C@H]12 [Meropenem, reference compound]
MIC (MRSA NRS 10100): 64 µg/mL (≈ 167 µM)
MIC (MRSA NRS 10129): 16 µg/mL (≈ 41.7 µM)
MIC (MRSA NRS 10191): > 64 µg/mL
MIC (MRSA NRS 10186): 16 µg/mL (≈ 41.7 µM)
MIC (VRSA VRS 4): > 64 µg/mL
MIC (MRSA NRS 10192): 32 µg/mL (≈ 83.4 µM)
MIC (MRSA NRS 10198): > 64 µg/mL
MIC (MRSA NRS 10119): > 64 µg/mL
MIC (MRSA NRS 10193): > 64 µg/mL
MIC (MRSA NRS 10194): 4 µg/mL (≈ 10.4 µM)
MIC (VRSA VRS 12): 16 µg/mL (≈ 41.7 µM)
MIC (VRSA VRS 1): > 64 µg/mL
MIC of drug in the presence of “22” “B” (S. aureus ATCC 29213 [3]): 0.5 µg/mL
MIC (S. aureus ATCC 29213 [3]): 0.5 µg/mL
Inference (drug interaction) (S. aureus ATCC 29213 [3]): No interaction

Structure (SMILES): COc1cccc(OC)c1C(=O)N[C@@H]1C(=O)N2[C@@H]1SC(C)(C)[C@@H]2C(=O)O [Methicillin, reference compound]
MIC (MRSA NRS 10100): > 64 µg/mL
MIC (MRSA NRS 10129): 32 µg/mL (≈ 84.1 µM)
MIC (MRSA NRS 10191): > 64 µg/mL
MIC (MRSA NRS 10186): 64 µg/mL (≈ 168 µM)
MIC (VRSA VRS 4): > 64 µg/mL
MIC (MRSA NRS 10192): > 64 µg/mL
MIC (MRSA NRS 10198): > 64 µg/mL
MIC (MRSA NRS 10119): > 64 µg/mL
MIC (MRSA NRS 10193): > 64 µg/mL
MIC (MRSA NRS 10194): 32 µg/mL (≈ 84.1 µM)
MIC (VRSA VRS 12): > 64 µg/mL
MIC (VRSA VRS 1): > 64 µg/mL

Structure (SMILES): CO[C@H]1/C=C/O[C@@]2(C)Oc3c(C)c(O)c4c(O)c(c(/C=N/N5CCN(C)CC5)c(O)c4c3C2=O)NC(=O)/C(C)=C\C=C\[C@H](C)[C@H](O)[C@@H](C)[C@@H](O)[C@@H](C)[C@H](OC(C)=O)[C@@H]1C [Rifampicin]
Inference (drug interaction) (S. aureus ATCC 29213 [3]): No interaction

Continued, in another order:

MIC (K. pneumoniae BAA 1705): > 64 µg/mL
MIC (S. aureus ATCC 29213 [1]): 1 µg/mL (≈ 3.22 µM)
MIC (E. coli ATCC 25922): > 64 µg/mL
MIC (A. baumannii BAA 1605): > 64 µg/mL
Structure (SMILES): O=C(Nc1ccc([N+](=O)[O-])cc1F)c1cc(Cl)ccc1O [Compound 18, 5-Chloro-N-(2ʹ-fluoro-4ʹ-nitrophenyl)-2-hydroxybenzamide]

MIC (K. pneumoniae BAA 1705): > 64 µg/mL
MIC (S. aureus ATCC 29213 [1]): 1 µg/mL (≈ 3.17 µM)
MIC (E. coli ATCC 25922): > 64 µg/mL
MIC (A. baumannii BAA 1605): > 64 µg/mL
Structure (SMILES): O=C(Nc1ccc(Cl)c(C(F)(F)F)c1)c1ccccc1O [Compound 19, N-(4ʹ-chloro-3ʹ-(trifluoromethyl)phenyl)-2-hydroxybenzamide]

MIC of drug in the presence of “22” “B” (S. aureus ATCC 29213 [3]): 1 µg/mL
MIC (S. aureus ATCC 29213 [3]): 1 µg/mL
Structure (SMILES): CCCCCCCCCC(=O)N[C@@H](Cc1c[nH]c2ccccc12)C(=O)N[C@H](CC(N)=O)C(=O)N[C@@H](CC(=O)O)C(=O)N[C@@H]1C(=O)NCC(=O)N[C@@H](CCCN)C(=O)N[C@@H](CC(=O)O)C(=O)N[C@H](C)C(=O)N[C@@H](CC(=O)O)C(=O)NCC(=O)N[C@H](CO)C(=O)N[C@@H]([C@H](C)CC(=O)O)C(=O)N[C@@H](CC(=O)c2ccccc2N)C(=O)O[C@@H]1C [Daptomycin]
Inference (drug interaction) (S. aureus ATCC 29213 [3]): No interaction

MIC of drug in the presence of “22” “B” (S. aureus ATCC 29213 [3]): 0.5 µg/mL
MIC (S. aureus ATCC 29213 [3]): 2 µg/mL
Structure (SMILES): CC(=O)NC[C@H]1CN(c2ccc(N3CCOCC3)c(F)c2)C(=O)O1 [Linezolid]
Inference (drug interaction) (S. aureus ATCC 29213 [3]): No interaction

MIC of drug in the presence of “22” “B” (S. aureus ATCC 29213 [3]): 0.125 µg/mL
MIC (S. aureus ATCC 29213 [3]): 0.125 µg/mL
Structure (SMILES): CN(C)c1ccc(O)c2c1C[C@H]1C[C@H]3[C@H](N(C)C)C(O)=C(C(N)=O)C(=O)[C@@]3(O)C(O)=C1C2=O [Minocycline]
Inference (drug interaction) (S. aureus ATCC 29213 [3]): No interaction
